Experiments:
[1] = biological target: T1, Mitogen-activated protein kinase 10 (Homo sapiens, UniProt P53779); test: Inhibition of JNK3 (unknown origin) at 1 uM relative to control
[2] = biological target: T1, Mitogen-activated protein kinase 10; test: Inhibition of JNK3 (unknown origin)
HepG2 = test: Antiproliferative activity against human HepG2 cells measured by MTT assay; type: functional, cell-based
WI-38 = test: Antiproliferative activity against human WI-38 cells measured by MTT assay; type: functional, cell-based
HL-60(TB) = test: Antiproliferative activity against human HL-60(TB) cells measured after 48 hrs by SRB assay; type: functional, cell-based; conditions: HL-60, time 48 hrs
MOLT-4 = test: Antiproliferative activity against human MOLT-4 cells measured after 48 hrs by SRB assay; type: functional, cell-based; conditions: MOLT-4, time 48 hrs
HOP-92 = test: Antiproliferative activity against human HOP-92 cells measured after 48 hrs by SRB assay; type: functional, cell-based; conditions: HOP-92, time 48 hrs
NCI-H23 = test: Antiproliferative activity against human NCI-H23 cells measured after 48 hrs by SRB assay; type: functional, cell-based; conditions: NCI-H23, time 48 hrs
UACC-257 = test: Antiproliferative activity against human UACC-257 cells measured after 48 hrs by SRB assay; type: functional, cell-based; conditions: UACC-257, time 48 hrs
IGROV-1 = test: Antiproliferative activity against human IGROV-1 cells measured after 48 hrs by SRB assay; type: functional, cell-based; conditions: IGROV-1, time 48 hrs
NCI/ADR-RES = test: Antiproliferative activity against human NCI-ADR-RES cells measured after 48 hrs by SRB assay; type: functional, cell-based; conditions: time 48 hrs
ACHN = test: Antiproliferative activity against human ACHN cells measured after 48 hrs by SRB assay; type: functional, cell-based; conditions: time 48 hrs
TK-10 = test: Antiproliferative activity against human TK-10 cells measured after 48 hrs by SRB assay; type: functional, cell-based; conditions: TK-10, time 48 hrs
MCF7 = test: Antiproliferative activity against human MCF7 cells measured after 48 hrs by SRB assay; type: functional, cell-based; conditions: MCF7, time 48 hrs
[3] = test system: Serine/threonine-protein kinase B-raf (Homo sapiens), P15056 [V600E]; test: Inhibition of B-RAF V600E mutant (unknown origin) at 1 uM relative to control
[4] = biological target: T2, Platelet-derived growth factor receptor alpha (Homo sapiens, UniProt P16234); test: Inhibition of PDGFRalpha (unknown origin) at 1 uM relative to control
[5] = biological target: T2, Platelet-derived growth factor receptor alpha; test: Inhibition of PDGFRalpha (unknown origin)
[6] = biological target: T1, Mitogen-activated protein kinase 10; test: Inhibition of JNK3 in human HEK293 cells transfected with JNK3-NanoLuc fusion vector measured after 1 hr by NanoBRET assay; type: cell-based
Cytochrome P450 2D6 = Cytochrome P450 2D6 (Homo sapiens, UniProt P10635); test: Inhibition of CYP2D6 (unknown origin) using EOMCC as a substrate; type: ADME
Cytochrome P450 3A4 = Cytochrome P450 3A4 (Homo sapiens, UniProt P08684); test: Inhibition of CYP3A4 (unknown origin) using BOMCC as a substrate; type: ADME
[7] = biological target: Voltage-gated inwardly rectifying potassium channel KCNH2 (Homo sapiens, UniProt Q12809); test: Inhibition of hERG measured by fluorescence polarization assay
Homo sapiens = species on record: Homo sapiens; test: RatioIC50 for inhibition of […] (unknown origin)

T1 sequence (P53779 whole entry): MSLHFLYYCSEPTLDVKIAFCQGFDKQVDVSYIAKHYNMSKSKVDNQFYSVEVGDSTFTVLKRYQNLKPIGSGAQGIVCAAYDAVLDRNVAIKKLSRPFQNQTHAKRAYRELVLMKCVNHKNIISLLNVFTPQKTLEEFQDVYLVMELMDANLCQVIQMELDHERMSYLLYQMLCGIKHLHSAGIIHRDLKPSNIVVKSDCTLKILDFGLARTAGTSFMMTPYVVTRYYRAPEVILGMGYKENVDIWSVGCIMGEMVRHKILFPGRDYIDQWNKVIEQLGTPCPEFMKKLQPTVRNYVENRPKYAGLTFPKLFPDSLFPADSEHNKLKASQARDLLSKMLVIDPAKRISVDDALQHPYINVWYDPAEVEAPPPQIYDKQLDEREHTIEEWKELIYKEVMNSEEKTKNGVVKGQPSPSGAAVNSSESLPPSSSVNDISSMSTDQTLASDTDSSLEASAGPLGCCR
T2 sequence (P16234 whole entry): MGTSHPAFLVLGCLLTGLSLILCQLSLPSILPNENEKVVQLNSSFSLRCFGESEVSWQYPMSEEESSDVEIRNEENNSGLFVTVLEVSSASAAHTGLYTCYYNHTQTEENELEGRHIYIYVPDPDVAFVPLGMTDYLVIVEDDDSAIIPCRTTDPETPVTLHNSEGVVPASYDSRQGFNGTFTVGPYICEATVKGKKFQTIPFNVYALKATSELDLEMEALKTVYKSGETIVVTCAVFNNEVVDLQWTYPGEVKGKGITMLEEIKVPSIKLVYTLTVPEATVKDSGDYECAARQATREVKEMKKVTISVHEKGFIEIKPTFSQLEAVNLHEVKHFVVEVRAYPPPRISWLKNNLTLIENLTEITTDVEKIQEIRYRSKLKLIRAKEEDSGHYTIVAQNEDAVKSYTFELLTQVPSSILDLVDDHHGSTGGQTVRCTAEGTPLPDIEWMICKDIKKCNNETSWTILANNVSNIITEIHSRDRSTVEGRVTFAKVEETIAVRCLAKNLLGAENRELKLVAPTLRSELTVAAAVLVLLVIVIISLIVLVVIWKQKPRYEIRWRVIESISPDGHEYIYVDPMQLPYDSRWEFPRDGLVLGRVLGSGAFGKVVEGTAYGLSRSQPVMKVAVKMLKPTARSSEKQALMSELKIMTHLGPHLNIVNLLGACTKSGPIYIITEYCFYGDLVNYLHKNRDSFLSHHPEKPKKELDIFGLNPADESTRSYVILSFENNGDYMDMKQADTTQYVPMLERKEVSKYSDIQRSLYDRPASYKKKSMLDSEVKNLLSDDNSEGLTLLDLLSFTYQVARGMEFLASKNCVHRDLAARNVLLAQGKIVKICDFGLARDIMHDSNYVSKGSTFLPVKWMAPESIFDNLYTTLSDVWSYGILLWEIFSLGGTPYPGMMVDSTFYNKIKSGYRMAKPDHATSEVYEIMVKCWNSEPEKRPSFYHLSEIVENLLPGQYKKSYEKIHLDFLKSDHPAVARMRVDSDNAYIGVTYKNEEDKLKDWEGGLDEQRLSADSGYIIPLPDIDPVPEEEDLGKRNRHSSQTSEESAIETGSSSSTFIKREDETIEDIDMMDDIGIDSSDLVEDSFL
Chain of Cytochrome P450 3A4 (P08684 whole entry): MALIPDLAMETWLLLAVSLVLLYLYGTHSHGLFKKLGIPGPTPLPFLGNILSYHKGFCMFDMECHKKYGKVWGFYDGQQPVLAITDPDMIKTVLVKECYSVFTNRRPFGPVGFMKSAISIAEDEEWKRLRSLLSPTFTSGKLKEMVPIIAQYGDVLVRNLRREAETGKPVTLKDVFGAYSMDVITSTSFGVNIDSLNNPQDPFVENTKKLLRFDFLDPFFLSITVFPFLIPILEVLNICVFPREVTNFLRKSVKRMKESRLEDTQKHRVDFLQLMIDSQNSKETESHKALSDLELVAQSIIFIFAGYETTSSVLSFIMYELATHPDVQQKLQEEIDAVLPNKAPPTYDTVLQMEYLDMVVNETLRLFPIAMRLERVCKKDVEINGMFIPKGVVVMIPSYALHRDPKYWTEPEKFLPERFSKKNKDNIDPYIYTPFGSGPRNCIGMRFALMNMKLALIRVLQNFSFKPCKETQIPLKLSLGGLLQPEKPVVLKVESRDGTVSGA
Chain of Voltage-gated inwardly rectifying potassium channel KCNH2 (Q12809 whole entry): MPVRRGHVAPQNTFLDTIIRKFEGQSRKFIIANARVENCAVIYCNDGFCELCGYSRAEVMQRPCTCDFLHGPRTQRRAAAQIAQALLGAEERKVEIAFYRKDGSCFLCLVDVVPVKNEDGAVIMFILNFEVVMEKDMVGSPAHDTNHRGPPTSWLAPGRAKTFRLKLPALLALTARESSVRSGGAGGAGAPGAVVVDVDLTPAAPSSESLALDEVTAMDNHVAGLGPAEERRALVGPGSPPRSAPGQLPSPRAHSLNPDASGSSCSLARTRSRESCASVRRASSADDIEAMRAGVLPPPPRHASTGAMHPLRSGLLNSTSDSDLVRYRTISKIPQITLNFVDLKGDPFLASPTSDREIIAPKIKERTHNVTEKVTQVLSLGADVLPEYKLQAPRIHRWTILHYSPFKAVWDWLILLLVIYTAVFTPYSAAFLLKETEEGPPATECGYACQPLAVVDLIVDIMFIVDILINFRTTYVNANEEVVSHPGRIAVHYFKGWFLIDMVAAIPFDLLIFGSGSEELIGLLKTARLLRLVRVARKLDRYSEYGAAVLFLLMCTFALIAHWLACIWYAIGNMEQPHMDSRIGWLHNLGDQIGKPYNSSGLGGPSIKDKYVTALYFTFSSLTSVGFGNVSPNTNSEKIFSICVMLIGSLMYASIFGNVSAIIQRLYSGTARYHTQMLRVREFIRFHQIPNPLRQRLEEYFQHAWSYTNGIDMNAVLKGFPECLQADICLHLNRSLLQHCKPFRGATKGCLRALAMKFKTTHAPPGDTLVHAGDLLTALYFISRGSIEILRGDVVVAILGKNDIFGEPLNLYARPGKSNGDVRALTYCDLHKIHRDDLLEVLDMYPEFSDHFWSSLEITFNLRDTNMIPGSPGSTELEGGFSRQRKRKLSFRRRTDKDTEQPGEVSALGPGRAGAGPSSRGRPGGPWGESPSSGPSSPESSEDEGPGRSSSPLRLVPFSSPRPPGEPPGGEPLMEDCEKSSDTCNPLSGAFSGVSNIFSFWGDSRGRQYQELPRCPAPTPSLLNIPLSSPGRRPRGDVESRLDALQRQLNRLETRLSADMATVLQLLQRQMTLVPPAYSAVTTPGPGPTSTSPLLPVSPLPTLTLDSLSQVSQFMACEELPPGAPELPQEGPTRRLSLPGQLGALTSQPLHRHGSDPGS
Chain of Cytochrome P450 2D6 (P10635 whole entry): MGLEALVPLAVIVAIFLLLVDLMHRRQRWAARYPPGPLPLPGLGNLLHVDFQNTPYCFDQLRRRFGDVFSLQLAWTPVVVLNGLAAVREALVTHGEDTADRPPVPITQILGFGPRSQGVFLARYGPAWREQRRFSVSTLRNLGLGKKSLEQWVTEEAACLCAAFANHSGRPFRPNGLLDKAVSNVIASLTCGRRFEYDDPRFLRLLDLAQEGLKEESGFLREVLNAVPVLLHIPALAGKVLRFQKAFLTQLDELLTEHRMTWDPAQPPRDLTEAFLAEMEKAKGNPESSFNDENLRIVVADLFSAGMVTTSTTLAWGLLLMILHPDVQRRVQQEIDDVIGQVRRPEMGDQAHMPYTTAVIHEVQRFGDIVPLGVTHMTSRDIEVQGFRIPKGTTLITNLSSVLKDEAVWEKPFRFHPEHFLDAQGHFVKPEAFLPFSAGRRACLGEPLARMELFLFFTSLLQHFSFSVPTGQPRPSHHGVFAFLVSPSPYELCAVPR
Chain of Serine/threonine-protein kinase B-raf (Homo sapiens), P15056 [V600E] (P15056 whole entry V600E): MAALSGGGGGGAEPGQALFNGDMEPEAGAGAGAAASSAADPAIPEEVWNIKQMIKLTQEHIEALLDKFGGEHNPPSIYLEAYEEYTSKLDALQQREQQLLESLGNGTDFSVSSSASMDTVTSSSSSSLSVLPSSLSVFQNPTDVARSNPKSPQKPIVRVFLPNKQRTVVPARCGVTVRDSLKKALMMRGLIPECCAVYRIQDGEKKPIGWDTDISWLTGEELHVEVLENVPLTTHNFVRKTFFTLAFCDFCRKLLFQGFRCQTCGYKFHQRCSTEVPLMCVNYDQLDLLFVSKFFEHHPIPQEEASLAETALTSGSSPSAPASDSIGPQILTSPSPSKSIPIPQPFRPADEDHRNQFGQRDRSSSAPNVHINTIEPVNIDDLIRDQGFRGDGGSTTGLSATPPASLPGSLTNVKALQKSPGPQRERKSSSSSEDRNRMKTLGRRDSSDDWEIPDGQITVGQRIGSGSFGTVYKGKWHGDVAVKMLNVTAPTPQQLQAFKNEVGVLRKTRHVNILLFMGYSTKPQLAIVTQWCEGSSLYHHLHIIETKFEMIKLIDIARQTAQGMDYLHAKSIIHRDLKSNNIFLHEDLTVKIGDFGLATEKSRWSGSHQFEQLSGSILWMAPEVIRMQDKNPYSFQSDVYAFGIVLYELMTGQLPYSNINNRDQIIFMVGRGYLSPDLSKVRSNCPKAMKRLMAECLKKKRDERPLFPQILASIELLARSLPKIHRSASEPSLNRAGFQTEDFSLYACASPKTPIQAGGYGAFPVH

SMILES: COc1cccc(-c2nn(-c3ccccc3)cc2-c2ccnc(N3CCN(C(=O)Nc4ccccc4)CC3)c2)c1
- inhibition [1]: 8%
- IC50 [2]: > 1 µM

SMILES: COc1cccc(-c2nn(-c3ccccc3)cc2-c2ccnc(N3CCN(C(=O)Nc4cc(C(F)(F)F)cc(C(F)(F)F)c4)CC3)c2)c1
- inhibition [1]: 9%
- IC50 [2]: > 1 µM

SMILES: O=C(Nc1cc(C(F)(F)F)cc(C(F)(F)F)c1)N1CCN(c2cc(-c3cn(-c4ccccc4)nc3-c3cccc(O)c3)ccn2)CC1
- inhibition [1]: 1%
- IC50 [2]: > 1 µM

SMILES: O=C(Nc1ccc(F)cc1)N1CCN(c2cc(-c3cn(-c4ccccc4)nc3-c3cccc(O)c3)ccn2)CC1
- inhibition [1]: 8%
- IC50 [2]: > 1 µM

SMILES: COc1cccc(-c2nn(-c3ccccc3)cc2-c2ccnc(N3CCN(C(=O)Nc4cccc(C(F)(F)F)c4)CC3)c2)c1
- inhibition [1]: 10%
- IC50 [2]: > 1 µM

SMILES: COc1cccc(-c2nn(-c3ccccc3)cc2-c2ccnc(N3CCN(C(=O)Nc4ccc(F)cc4)CC3)c2)c1
- inhibition [1]: 0%
- IC50 [2]: > 1 µM

SMILES: O=C(Nc1ccc(Cl)c(Cl)c1)N1CCN(c2cc(-c3cn(-c4ccccc4)nc3-c3cccc(O)c3)ccn2)CC1
- inhibition [1]: 3%
- IC50 [2]: > 1 µM

SMILES: O=C(Nc1cccc(C(F)(F)F)c1)N1CCN(c2cc(-c3cn(-c4ccccc4)nc3-c3cccc(O)c3)ccn2)CC1
- inhibition [1]: 17%
- IC50 [2]: > 1 µM

SMILES: COc1cccc(-c2nn(-c3ccccc3)cc2-c2ccnc(N3CCN(C(=O)Nc4ccc(Cl)c(Cl)c4)CC3)c2)c1
- inhibition [1]: 4%
- IC50 [2]: > 1 µM

SMILES: O=C(NCCNc1cc(-c2cn(-c3ccccc3)nc2-c2cccc(O)c2)ccn1)Nc1ccc(Cl)c(Cl)c1
- IC50 (HepG2): 2.84 µM
- IC50 (WI-38): 17.4 µM
- inhibition [1]: 69%
- IC50 [2]: 0.526 µM

SMILES: CNC(=O)c1cc(Oc2ccc(NC(=O)Nc3ccc(Cl)c(C(F)(F)F)c3)cc2)ccn1 [SORAFENIB]
- TGI (HL-60(TB)): 100 µM
- TGI (MOLT-4): 100 µM
- TGI (HOP-92): 5.01 µM
- TGI (NCI-H23): 5.01 µM
- TGI (UACC-257): 5.01 µM
- TGI (IGROV-1): 10 µM
- TGI (NCI/ADR-RES): 7.94 µM
- TGI (ACHN): 10 µM
- TGI (TK-10): 10 µM
- TGI (MCF7): 7.94 µM
- IC50 (WI-38): 14.7 µM

SMILES: O=C(NCCNc1cc(-c2cn(-c3ccccc3)nc2-c2cccc(O)c2)ccn1)Nc1ccc(Cl)c(C(F)(F)F)c1
- inhibition [1]: 38%
- IC50 [2]: > 1 µM

SMILES: COc1cccc(-c2nn(-c3ccccc3)cc2-c2ccnc(N3CCN(C(=O)Nc4ccc(Cl)c(C(F)(F)F)c4)CC3)c2)c1
- inhibition [1]: 7%
- IC50 [2]: > 1 µM

SMILES: O=C(NCCNc1cc(-c2cn(-c3ccccc3)nc2-c2cccc(O)c2)ccn1)Nc1cc(C(F)(F)F)cc(C(F)(F)F)c1
- inhibition [1]: 19%
- IC50 [2]: > 1 µM

SMILES: O=C(NCCCNc1cc(-c2cn(-c3ccccc3)nc2-c2cccc(O)c2)ccn1)Nc1ccc(Cl)c(Cl)c1
- inhibition [1]: 13%
- IC50 [2]: > 1 µM

SMILES: O=C(Nc1ccccc1)N1CCN(c2cc(-c3cn(-c4ccccc4)nc3-c3cccc(O)c3)ccn2)CC1
- inhibition [1]: 6%
- IC50 [2]: > 1 µM

SMILES: O=C(NCCNc1cc(-c2cn(-c3ccccc3)nc2-c2cccc(O)c2)ccn1)Nc1cccc(C(F)(F)F)c1
- IC50 (HepG2): 1.56 µM
- IC50 (WI-38): 18.5 µM
- inhibition [1]: 84%
- IC50 [2]: 0.099 µM
- inhibition [3]: 9%
- inhibition [4]: 50%
- IC50 [5]: 1 µM
- IC50 [6]: 3.92 µM
- IC50 (Cytochrome P450 2D6): 6.24 µM
- IC50 (Cytochrome P450 3A4): 20.5 µM
- IC50 [7]: > 50 µM
- Ratio IC50 (Homo sapiens): 10.1

SMILES: O=C(NCCCNc1cc(-c2cn(-c3ccccc3)nc2-c2cccc(O)c2)ccn1)Nc1ccc(Cl)c(C(F)(F)F)c1
- inhibition [1]: 63%
- IC50 [2]: 0.614 µM

SMILES: O=C(NCCCNc1cc(-c2cn(-c3ccccc3)nc2-c2cccc(O)c2)ccn1)Nc1cc(C(F)(F)F)cc(C(F)(F)F)c1
- inhibition [1]: 0%
- IC50 [2]: > 1 µM

SMILES: O=C(NCCNc1cc(-c2cn(-c3ccccc3)nc2-c2cccc(O)c2)ccn1)Nc1ccc(F)cc1
- inhibition [1]: 83%
- IC50 [2]: 0.189 µM

Source: ChEMBL document CHEMBL5113453, “Design, synthesis, and biological evaluation of a new series of pyrazole derivatives: Discovery of potent and selective JNK3 kinase inhibitors” (Bioorg Med Chem, 2022)
